Test results published in PubChem BioAssay (NCI).
Values joined by “and” are separate entries in the source; they are usually repeats but may differ in a detail not shown here. Equal entries are not always repeated.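 Dose response: 5 concentrations. Exposure: 48 h. Format: 96-well plates. Endpoint: linear interpolation; highest concentration if not reached. The concentration for 50% growth inhibition is given as GI50. TGI is the concentration that stops growth completely.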

Columns and labels:
Assay in all cases: DTP human tumour cell line panel, 48 h
[1] = test system: DU-145 prostate
[2] = test system: UACC-62 melanoma
[3] = test system: LOX IMVI melanoma
[4] = test system: RXF 393 renal
[5] = test system: UACC-257 melanoma
[6] = test system: K-562 leukemia
[7] = test system: SNB-75 CNS
[8] = test system: SW-620 colon
[9] = test system: OVCAR-5 ovarian
[10] = test system: M14 melanoma

## CC(=O)O/N=C1/C(c2c(O)[nH]c3cc(Br)ccc23)=Nc2ccccc21
[1]
  GI50: 1.44 µM
  TGI: 3.2 µM
[2]
  GI50: 1.17 µM
  TGI: 2.75 µM
[3]
  GI50: 1.13 µM
  TGI: 2.4 µM
[4]
  GI50: 0.385 µM
  TGI: 1.61 µM
[5]
  GI50: 2.26 µM
  TGI: 4.38 µM
[6]
  GI50: 0.553 µM
  TGI: 3.3 µM
[7]
  GI50: 0.811 µM
  TGI: 5.11 µM
[8]
  GI50: 1.82 µM
  TGI: 3.46 µM
[9]
  GI50: 2.51 µM
  TGI: 4.17 µM
[10]
  GI50: 2 µM
  TGI: 4.88 µM

## NS(=O)(=O)c1cccc(N=Cc2c(O)[nH]c3ccccc23)c1
[1]
  GI50: > 25 µM
  TGI: > 25 µM
[2]
  GI50: > 25 µM
  TGI: > 25 µM
[3]
  GI50: > 25 µM
  TGI: > 25 µM
[4]
  GI50: > 25 µM
  TGI: > 25 µM
[5]
  GI50: > 25 µM
  TGI: > 25 µM
[6]
  GI50: > 25 µM
  TGI: > 25 µM
[7]
  GI50: > 25 µM
  TGI: > 25 µM
[8]
  GI50: > 25 µM
  TGI: > 25 µM
[9]
  GI50: > 25 µM
  TGI: > 25 µM
[10]
  GI50: > 25 µM
  TGI: > 25 µM

## Cc1cc(Cc2cc(C)cc(C(C)(C)C)c2O)c(O)c(C(C)(C)C)c1
[1]
  GI50: 4.9 µM
  TGI: 16.6 µM
[2]
  GI50: 10.4 µM
  TGI: 22.2 µM
[3]
  GI50: 7.55 µM
  TGI: 20.2 µM
[4]
  GI50: 6.37 µM
  TGI: 18.9 µM
[5]
  GI50: 9.55 µM
  TGI: 21.8 µM
[6]
  GI50: 3.95 µM
  TGI: 19.8 µM
[7]
  GI50: 11.9 µM
  TGI: 24.3 µM
[8]
  GI50: 4.47 µM
  TGI: 16 µM
[9]
  GI50: 14.4 µM
  TGI: 27.5 µM
[10]
  GI50: 11.1 µM
  TGI: 23 µM

## COc1cccc(/C=C/c2cnc3ccccc3n2)c1OC
[1]
  TGI: > 100 µM
[2]
  TGI: 91.2 µM
[3]
  TGI: > 100 µM
[4]
  TGI: 96.1 µM
[5]
  TGI: > 100 µM
[6]
  TGI: > 100 µM
[7]
  TGI: 79.6 µM
[8]
  TGI: > 100 µM
[9]
  TGI: > 100 µM
[10]
  TGI: > 100 µM

## N#CCc1ncc(-c2ccc(C(F)(F)F)cc2)c(NC2CCCCCC2)n1
[1]
  GI50: > 10 µM
  TGI: > 10 µM
[2]
  GI50: > 10 µM
  TGI: > 10 µM
[3]
  GI50: > 10 µM
  TGI: > 10 µM
[4]
  GI50: > 10 µM
  TGI: > 10 µM
[5]
  GI50: > 10 µM
  TGI: > 10 µM
[6]
  GI50: > 10 µM
  TGI: > 10 µM
[7]
  GI50: > 10 µM
  TGI: > 10 µM
[8]
  GI50: > 10 µM
  TGI: > 10 µM
[9]
  GI50: > 10 µM
  TGI: > 10 µM
[10]
  GI50: > 10 µM
  TGI: > 10 µM

## C=CCC1(O)c2cccc(NCCO)c2C(=O)c2c(NCCO)cccc21
[1]
  GI50: > 100 µM
  TGI: > 100 µM
[2]
  GI50: > 100 µM
  TGI: > 100 µM
[3]
  GI50: > 100 µM
  TGI: > 100 µM
[4]
  GI50: > 100 µM
  TGI: > 100 µM
[5]
  GI50: > 100 µM
  TGI: > 100 µM
[6]
  GI50: > 100 µM
  TGI: > 100 µM
[7]
  GI50: 75.3 µM
  TGI: > 100 µM
[8]
  GI50: > 100 µM
  TGI: > 100 µM
[9]
  GI50: > 100 µM
  TGI: > 100 µM
[10]
  GI50: > 100 µM
  TGI: > 100 µM

## O=C(O)c1cc2cc(OCc3ccccc3)c(OCc3ccccc3)cc2[nH]1
[1]
  GI50: 32.8 µM
  TGI: > 100 µM
[2]
  GI50: 17.5 µM
  TGI: 34.5 µM
[3]
  GI50: 18.1 µM
  TGI: 35.4 µM
[4]
  GI50: 14.6 µM
  TGI: 30.4 µM
[5]
  GI50: 22.2 µM
  TGI: 62.9 µM
[6]
  GI50: 29.3 µM
  TGI: > 100 µM
[7]
  GI50: 17.3 µM
  TGI: 55.6 µM
[8]
  GI50: 21.8 µM
  TGI: 53.8 µM
[9]
  GI50: 29.1 µM
  TGI: 87.9 µM
[10]
  GI50: 24.2 µM
  TGI: 60.8 µM

## COc1ccc(/C=C/C(=O)Oc2cc(O)cc(O)c2)cc1
[1]
  TGI: > 100 µM
[2]
  TGI: > 100 µM
[3]
  TGI: 41.1 µM
[4]
  TGI: > 100 µM
[5]
  TGI: > 100 µM
[6]
  TGI: > 100 µM
[7]
  TGI: > 100 µM
[8]
  TGI: > 100 µM
[9]
  TGI: > 100 µM
[10]
  TGI: > 100 µM

## C=C1C(=O)O[C@H]2[C@H]1CC/C(COC(=O)NCCc1c[nH]c3ccc(OC)cc13)=C\CC[C@@]1(C)O[C@@H]21
[1]
  GI50: 1.61 µM
  TGI: 4.43 µM
[2]
  GI50: 1.72 µM
  TGI: 3.77 µM
[3]
  GI50: 1.32 µM
  TGI: 2.78 µM
[4]
  GI50: 1.46 µM
  TGI: 2.92 µM
[5]
  GI50: 1.52 µM
  TGI: 3.3 µM
[6]
  GI50: 0.453 µM
  TGI: 3.29 µM
[7]
  GI50: 10 µM
  TGI: 21.7 µM
[8]
  GI50: 1.94 µM
  TGI: 5.27 µM
[9]
  GI50: 1.82 µM
  TGI: 4 µM
[10]
  GI50: 1.62 µM
  TGI: 3.51 µM

## O=c1[nH]cnc2[nH]ncc12
[1]
  GI50: > 92.6 µM and 189 µM
  TGI: > 2150 µM
[2]
  GI50: 166 µM
  TGI: > 2560 µM
[3]
  GI50: 142 µM
  TGI: > 5000 µM
[4]
  GI50: 266 µM
  TGI: > 5000 µM
[5]
  GI50: 788 µM
  TGI: > 5000 µM
[6]
  GI50: 179 µM
  TGI: > 5000 µM
[7]
  GI50: 1180 µM
  TGI: > 4110 µM
[8]
  GI50: 356 µM
  TGI: > 5000 µM
[9]
  GI50: 486 µM
  TGI: > 1550 µM
[10]
  GI50: 234 µM
  TGI: > 5000 µM
